Reference: ChEMBL document CHEMBL3507680, “University of Dundee, Gates Library screen for HepG2 cell viability”

Test: Human HepG2 cell viability assay in 384 well format
Assay type: toxicity, cell-based
Set-up: dose 125 nL, time 70.5 hour; cytotoxicity at 70.5 h: concentration not given beside the values
Conditions: HepG2 cells, read-out: Inhibition

In order of rising cytotoxicity at 70.5 h:
1. CC(=O)N1CCCCC1c1nc(N)ncc1-c1ccccc1 (centres undefined)  -24.9%
2. CC(=O)N1[C@H](CN(C)C)C[C@@H]2CN(C(=O)Cc3cccs3)CC[C@@H]21  -21.3%
3. CCCOC1CCCN(c2nc(COC)nc3c2cnn3C)C1 (centres undefined)  -19%
4. CC(C)NC(=O)C1CCC2(CCN(Cc3cnn(C)c3)CC2)CO1 (centres undefined)  -17%
5. Cc1ncc(CN2CCOCC2)c2cc(C(=O)c3ccc(Br)cc3)oc12  -13.8%
6. O[C@@]1(CNCC2(Cn3ccnc3)CC2)CCCN2CCCC[C@@H]21  -13.1%
7. Cc1ccc(Cn2nc(C)c3c(C(=O)O)c(Cl)c(C)nc32)cc1  -12.9%
8. CN(Cc1ccc(F)cc1)CC1(O)CCN(C(=O)c2ccccn2)C1 (centres undefined)  -12.9%
9. CN(Cc1c(F)cccc1Cl)C(=O)c1cnn(CCN2CCOCC2)c1  -12.6%
10. Cc1cc(SCC(N)=O)nc(-c2cccc(F)c2)n1  -11.7%
11. CCCNC(=O)CN1CCC(NCc2csc(C(C)C)n2)CC1  -11.5%
12. Cc1nc(CN2CCCC(CCNS(C)(=O)=O)C2)c[nH]1 (centres undefined)  -11.3%
13. CCc1noc(-c2cccc(NC(=O)C(C)(C)C)c2)n1  -11.2%
14. Cc1nc(C2CN(Cc3ccccc3C)CCO2)no1 (centres undefined)  -11%
15. CN(Cc1ccc([S+](C)[O-])cc1)c1ccccn1 (centres undefined)  -10.9%
16. Cc1cc(N2CCC(Cc3ccccc3)CC2)nc(-c2ccncc2)n1  -10.7%
17. Cc1cnn(C2CCCN(C(=O)c3cccc4c3OCO4)C2)c1 (centres undefined)  -10.4%
18. CN1CC(c2ccccc2)CC12CCN(C(=O)c1cccnc1)CC2 (centres undefined)  -9.06%
19. COc1cccc(C(=O)N2CCCC(CNS(C)(=O)=O)C2)c1 (centres undefined)  -8.76%
20. O=C(Nc1cn[nH]c1)N1CCCCCC1c1ccncc1 (centres undefined)  -8.75%
21. COCCN(Cc1ccc(C)o1)C(=O)Nc1ncc(C)s1  -8.73%
22. Cc1ccc(C(C(=O)O)N(C)CCCN2CCOCC2)c(C)c1 (centres undefined)  -8.61%
23. CCO[C@H]1CN(C)C[C@@H]1NC(=O)c1cc(C)nc2c(C)cccc12  -8.5%
24. CCCn1ncc(C(=O)NC(C)c2c(C)nn(CC)c2C)c1C (centres undefined)  -8.47%
25. CC(=O)N1CCCC(c2ccc3sc(N)nc3n2)C1 (centres undefined)  -8.18%
26. CN1CC(C(=O)NCCc2ccc3c(c2)OCO3)CC1=O (centres undefined)  -8.14%
27. CC(C)(CO)CCCNC(=O)NC1(c2cccc(F)c2)CC1  -8.07%
28. CC(C)N1CCO[C@@H]2CN(S(=O)(=O)c3cccs3)CC[C@@H]2C1  -7.93%
29. CCc1cc(N2CCC(N3CCSCC3)CC2)n2nccc2n1  -7.5%
30. CCCn1nc2c(cc1=O)CN(CC(=O)Nc1cc(C)no1)CC2  -7.27%
31. O=C1NCC2(CCCN(Cc3cccnc3)C2)Oc2ccccc21 (centres undefined)  -7.07%
32. OCCn1nnnc1Cc1ccc(Br)cc1  -6.7%
33. COc1cccc(N2CCC(N3C[C@@H](NC(C)=O)[C@H](C(C)C)C3)CC2)c1  -6.54%
34. CC(CCS(C)(=O)=O)NC(=O)NCc1ccc2c(c1)CCC2 (centres undefined)  -6.48%
35. O=C(NC[C@H]1OC[C@@H](NC2CCOCC2)[C@@H]1O)C1CCCC1  -6.06%
36. Cc1cc(S(=O)(=O)N2CCC(S(C)(=O)=O)C2)ccc1F (centres undefined)  -5.71%
37. O=C1CC(NS(=O)(=O)N2CCOCC2)CN1Cc1ccccc1 (centres undefined)  -5.68%
38. CN(Cc1nc(Cc2cccc(C(F)(F)F)c2)no1)C1CCOCC1  -5.63%
39. CS(=O)(=O)NC(=O)CCc1cccc(OC2CCCC2)c1  -5.51%
40. COc1ccc(CN2CCO[C@@H]3C[C@@H](C(=O)NC(C)C)C[C@H]32)cc1  -5.46%
41. CCc1ocnc1C(=O)N1CCCC1c1noc(C)n1 (centres undefined)  -5.19%
42. O=C(NC[C@H]1OC[C@@H](NC2CCNCC2)[C@@H]1O)C1CCCC1  -5.05%
43. N#Cc1cccc(S(=O)(=O)N2CC(CC(=O)O)c3ccccc32)c1 (centres undefined)  -4.94%
44. Cc1ccc(-c2[nH]c3ccccc3c2C(=O)O)c(C)c1  -4.63%
45. N[C@H]1CN(S(=O)(=O)c2cccnc2)C[C@@H]1C1CC1  -4.49%
46. O=c1c(-c2ccnc(N3CCCC[C@@H]3CO)n2)cnc2sccn12  -4.35%
47. CCN(CC)C(=O)CN(C)CCn1nc2ccccn2c1=O  -4.24%
48. Cc1ccccc1C(=O)N1CCN(c2ccc(-n3cncn3)nn2)CC1  -4.18%
49. CC(c1nc(-c2ccccc2)no1)N1CC(n2cccn2)C1 (centres undefined)  -4.14%
50. CN(CC1CCOC1)c1ncc(Br)cn1 (centres undefined)  -3.89%
51. O=C(CO)N1CCC(c2ccnc(Nc3cc(C(F)(F)F)ccn3)n2)C1 (centres undefined)  -3.68%
52. CN1CCC2(Cc3ccccc3NC2=O)C1 (centres undefined)  -3.49%
53. CC(C)Nc1ncnc2c1CCN(C(=O)c1ccccc1F)CC2  -3.35%
54. CSCc1noc(Cn2ncn3cccc3c2=O)n1  -3.25%
55. CSc1ccc(-c2nc(CN3CCC(CN)C3)c(C)o2)cc1 (centres undefined)  -3.18%
56. CCOc1ncccc1NC(=O)N1CCC(CN2CCOCC2)CC1  -3.11%
57. Cc1nn(C)c2cn(C(C)C(=O)NCc3ccncc3)nc12 (centres undefined)  -2.93%
58. CC(=O)N1CCCc2cc(NC(=O)NCCc3cnn(C)c3)ccc21  -2.87%
59. COC1CCCN(C(=O)NCCCF)C1 (centres undefined)  -2.7%
60. O=C(CSc1nnc(N2CCOCC2)s1)NCc1cccs1  -2.54%
61. CC(C)N1CCc2onc(Cn3cccc3)c2C1  -2.22%
62. Cc1nc(COCc2cnc3n2CCN(C)C3C)cs1 (centres undefined)  -1.73%
63. Cc1noc(C)c1C(=O)N[C@@H]1CCC[C@@H](Oc2ccccc2)[C@@H]1O  -1.7%
64. Cc1c(C(=O)N2CCN(C)[C@@H]3CS(=O)(=O)C[C@@H]32)[nH]c2ccc(F)cc12  -1.69%
65. CCc1noc(CC)c1CNC(=O)Nc1cccc(C(=O)N(C)C)c1  -1.22%
66. Cc1cc(C)n(C2CCCN(C(=O)c3ccc(F)cc3F)C2)n1 (centres undefined)  -0.896%
67. Cc1nnc2ccc(OCCNS(C)(=O)=O)nn12  -0.867%
68. CC(=O)N[C@@H]1CN(S(=O)(=O)Cc2ccccc2)C[C@H]1C(C)C  -0.553%
69. Cc1nc(C)c(CNC(=O)NC2CC(C)(C)OC2(C)C)s1 (centres undefined)  -0.473%
70. Cc1ccc(N2CCc3sc(C(=O)NCCN4CCCC4)cc32)nn1  -0.377%
71. COc1ccc2c(C)c(C(=O)NC3CCOCC3)oc2c1  -0.242%
72. O=C1CO[C@H]2CN(C3CCOCC3)C[C@H]2N1Cc1ccncc1  0.0501%
73. CN1CCCC1CNC(=O)CCCOc1ccc(F)cc1 (centres undefined)  0.0711%
74. Cc1nc(C)c(C(=O)Nc2cc(N3CCC(C)CC3)ncn2)s1  0.183%
75. Cc1nn(-c2ccc(C(=O)O)cc2)c2c1C(CC(C)C)SCC(=O)N2 (centres undefined)  0.483%
76. COCC(=O)NCC(Cc1cccc(F)c1)n1cccc1 (centres undefined)  0.782%
77. CCc1cnc(CN(C(C)=O)C2CCN(Cc3nccn3C)C2)o1 (centres undefined)  1.08%
78. O=C(NCC1(O)CCCCC1)c1coc(COc2cccc(F)c2)n1  1.09%
79. CCc1ccc(C(=O)N2CCN(CC(O)c3ccccc3)CC2)o1 (centres undefined)  1.67%
80. CC(=O)N1CC[C@H]2OCC[C@@]2(C(=O)NCc2ccco2)C1  1.98%
81. O=C([C@H]1CCCO1)N1CCC2(CC1)Cc1ccccc1CNC2=O  3.51%
82. O=C(NCCNc1ccccn1)NC1CCOC2(CCCCC2)C1 (centres undefined)  3.54%
83. O=C(COc1cccc2c1CCC2=O)NCCSc1ccccc1  3.81%
84. CCN(CC)CCNC(=O)CCc1c(C)nn(-c2ccccc2Br)c1C  8.21%
85. O=C1CCC2(CCN(Cc3cscn3)CC2)CN1CC1CCCO1 (centres undefined)  10.4%
86. CSCCC(NC(=O)C1CC1)C(=O)N(C)Cc1ccsc1 (centres undefined)  10.7%
87. Cc1ccnc(NC(=O)c2ccc(C)o2)c1  12.1%
88. Cc1ccc2cc(CN(C)Cc3ccccn3)c(=O)[nH]c2c1  12.4%
89. O=S(=O)(C1CC1)N1CCCC2(COCCN(c3nncs3)C2)C1 (centres undefined)  12.7%
90. COCCN1CCC(CN(CC2CCCO2)C(=O)COC)CC1 (centres undefined)  13.8%
91. CC(C)CNC(=O)c1cc(C2CC2)nc2c1c(C1CCCN1)nn2C (centres undefined)  13.8%
92. CCC(=O)Nc1ccc(F)cc1OC  14.6%
93. CCN(CC)Cc1ccc(CNC(=O)C(C)(C)n2cc(Br)cn2)cc1  15.4%
94. CCNC(=O)CCC(=O)NC1(c2cccc(C(F)(F)F)c2)CCC1  16.4%
95. Cc1ccc(SCCN(C)C(=O)c2cn(CCN)nn2)cc1  16.5%
96. Cc1nn(C)c(N2CCOCC2)c1CNC1CCc2ccccc2C1 (centres undefined)  16.6%
97. CC(=O)N(c1ccc(C)cc1)c1nc(CN2CCCCC2C)cs1 (centres undefined)  16.8%
98. O=C(O)c1ccccc1-c1c(-c2ccccc2)ncn1CC1CCCO1 (centres undefined)  17.5%
99. COC(=O)c1ccc(CNCc2ccn(C)n2)cc1  17.7%
100. O=C(C1CCC1)N1CCC2(CCN(Cc3cccc(F)c3)CC2)CC1  18.6%
101. CCOc1ccnc(N2CCN(C(=O)c3ccoc3)CC2)n1  18.6%
102. Cc1ccc2ncn(CC(O)CN3CCC(C)CC3)c(=O)c2c1 (centres undefined)  19.7%
103. CN(C)c1no[n+]([O-])c1-c1ccccc1  20.3%
104. CCCc1cc(N2CCC(NC3CCOCC3)CC2)nc(C)n1  22.8%
105. CC(C(=O)N(C)Cc1noc(C2CCC2)n1)N1CCc2ccccc2C1 (centres undefined)  23.9%
106. CN1CCC(N(C)CCC(=O)N2CCC(Cc3ccc(F)cc3)CC2)C1 (centres undefined)  24.2%
107. Cc1cnc(C(=O)N2C[C@@H]3CN(CC4CCCC4)CCO[C@@H]3C2)cn1  25.7%
108. COc1c(CNC2CCSc3ccc(F)cc32)c(C)nn1C (centres undefined)  25.9%
109. Cc1ccc(C(C(=O)NCCN2CCC(CO)CC2)N(C)C)cc1 (centres undefined)  27.1%
110. COC(=O)c1ccnn1COc1ccc(Cl)cc1  28.1%
111. COCCN(Cc1cccc(C#N)c1)Cc1nc(C)no1  28.5%
112. Cc1nc(C)n(CC2CCCN(c3ncnc4sccc34)C2)n1 (centres undefined)  29.9%
113. CN1CCC(N(Cc2ccccc2F)C(=O)NCc2ccncc2)CC1  30.5%
114. CN(C)CC(=O)NC1CC(C)(C)Cc2nc(C(C)(C)C)ncc21 (centres undefined)  46.7%
